# From patent US10556874B2, “N-(1,3,4-oxadiazol-2-yl)aryl carboxamide derivatives with herbicidal action” (Bayer CropScience Aktiengesellschaft, priority 2015, dated 2020)
# Legend:
# Format in all cases: in vivo
# Stellaria media [1] = assay: Pre-emergence herbicidal action against harmful plants; conditions: 504 h, application rate 320 g/ha, scored visually after 3 weeks vs untreated controls, read-out: herbicidal activity in percent
# From the text: (§1) 1. Pre-Emergence Herbicidal Action Against Harmful Plants
# (§2) Seeds of monocotyledonous and dicotyledonous weed plants and crop plants are laid out in wood-fiber pots in sandy loam and covered with soil. The compounds of the invention, formulated in the form of wettable powders (WP) or as emulsion concentrates (EC), are then applied to the surface of the covering soil in the form of an aqueous suspension or emulsion at a water application rate equating to 600 to 800 l/ha, with addition of 0.2% wetting agent. After the treatment, the pots are placed in a greenhouse and kept under good growth conditions for the trial plants. The damage to the test plants is scored visually after a test period of 3 weeks by comparison with untreated controls (herbicidal activity in percent (%): 100% activity=the plants have died, 0% activity=like control plants). Here, for example, the compounds Nos. 1-145, 1-385, 3-385, 4-145, 4-385, 6-385, 7-145, 7-385 and 9-385, at an application rate of 320 g/ha, each show an activity of at least 80% against Stellaria media and Veronica persica.
# Veronica persica = assay: as above; conditions: 504 h, application rate 320 g/ha, scored visually after 3 weeks vs untreated controls, read-out: herbicidal activity in percent
# From the text: as §1, §2
# Amaranthus retroflexus = assay: Post-emergence herbicidal action against harmful plants; conditions: 504 h, application rate 80 g/ha, assessed visually after about 3 weeks vs untreated controls, read-out: herbicidal action in percent
# Experimental: (§3) 2. Post-Emergence Herbicidal Action Against Harmful Plants
# (§4) Seeds of monocotyledonous and dicotyledonous weed and crop plants are laid out in sandy loam soil in wood-fiber pots, covered with soil and cultivated in a greenhouse under good growth conditions. 2 to 3 weeks after sowing, the test plants are treated at the one-leaf stage. The compounds of the invention, formulated in the form of wettable powders (WP) or as emulsion concentrates (EC), are then sprayed onto the green parts of the plants in the form of an aqueous suspension or emulsion at a water application rate equating to 600 to 800 l/ha, with addition of 0.2% wetting agent. After the test plants have been left to stand in the greenhouse under optimal growth conditions for about 3 weeks, the action of the preparations is assessed visually in comparison to untreated controls (herbicidal action in percent (%): 100% activity=the plants have died, 0% activity=like control plants). Here, for example, the compounds Nos. 1-145, 1-385, 3-385, 4-145, 4-385, 6-385, 7-145, 7-385 and 9-385, at an application rate of 80 g/ha, each show an activity of at least 80% against Stellaria media and Amaranthus retroflexus.
# Stellaria media [2] = assay: as above; conditions: 504 h, application rate 80 g/ha, assessed visually after about 3 weeks vs untreated controls, read-out: herbicidal action in percent
# Experimental: as §3, §4
# [3] = test system: Alopecurus myosuroides (ALOMY); assay: Comparative experiment in pre-emergence; conditions: dosage 80 g/ha, 100% = plants have died, 0% = like control plants
# From the text: as §2
# 3. Comparative Experiment in Pre-Emergence
# For comparative purposes, the herbicidal activity of some compounds according to the invention and the most structurally similar compounds known from the prior art were tested.
SMILES,pest or weed control at 320 g/ha (Stellaria media [1]) [%],pest or weed control at 320 g/ha (Veronica persica) [%],pest or weed control at 80 g/ha (Amaranthus retroflexus) [%],pest or weed control at 80 g/ha (Stellaria media [2]) [%],Herbicidal activity against ALOMY [3] [%]
"CCOC(=O)OC(C)N(C(=O)c1ccc(C(F)(F)F)c(S(C)(=O)=O)c1C)c1nnc(C)o1 (stereo not shown) [Compound No. 1-145, ethyl 1-{[2-methyl-3-(methylsulfonyl)-4-(trifluoromethyl)benzoyl](5-methyl-1,3,4-oxadiazol-2-yl)amino}ethyl carbonate]",≥ 80,≥ 80,≥ 80,≥ 80,100
"CCOC(=O)OC(C)N(C(=O)c1ccc(C(F)(F)F)c([S+](C)[O-])c1Cl)c1nnc(C)o1 (stereo not shown) [Compound No. 1-385, 1-{[2-chloro-3-(methylsulfinyl)-4-(trifluoromethyl)benzoyl](5-methyl-1,3,4-oxadiazol-2-yl)amino}ethyl ethyl carbonate]",≥ 80,≥ 80,≥ 80,≥ 80,–
"Cc1nn(C(C)OC(=O)OC2CCCCC2)c(=NC(=O)c2ccc(C(F)(F)F)c([S+](C)[O-])c2Cl)o1 (stereo not shown) [Compound No. 6-385, 1-[2-{[2-chloro-3-(methylsulfinyl)-4-(trifluoromethyl)benzoyl]imino}-5-methyl-1,3,4-oxadiazol-3(2H)-yl]ethyl cyclohexyl carbonate]",≥ 80,≥ 80,≥ 80,≥ 80,–
"CCOC(=O)OC(C)n1nc(C)oc1=NC(=O)c1ccc(C(F)(F)F)c([S+](C)[O-])c1Cl (stereo not shown) [Compound No. 4-385, ethyl 1-[5-methyl-2-{[2-chloro-3-(methylsulfinyl)-4-(trifluoromethyl)benzoyl]imino}-1,3,4-oxadiazol-3(2H)-yl]ethyl carbonate]",≥ 80,≥ 80,≥ 80,≥ 80,–
"Cc1nnc(N(C(=O)c2ccc(C(F)(F)F)c([S+](C)[O-])c2Cl)C(C)OC(=O)OC2CCCCC2)o1 (stereo not shown) [Compound No. 3-385, 1-{[2-chloro-3-(methylsulfinyl)-4-(trifluoromethyl)benzoyl](5-methyl-1,3,4-oxadiazol-2-yl)amino}ethyl cyclohexyl carbonate]",≥ 80,≥ 80,≥ 80,≥ 80,100
"Cc1nnc(N=C(OC(C)OC(=O)OC2CCCCC2)c2ccc(C(F)(F)F)c([S+](C)[O-])c2Cl)o1 (stereo not shown) [Compound No. 9-385, 1-{[(cyclohexyloxy)carbonyl]oxy}ethyl-2-chloro-N-(5-methyl-1,3,4-oxadiazol-2-yl)-3-(methylsulfinyl)-4-(trifluoromethyl)benzenecarboximidate]",≥ 80,≥ 80,≥ 80,≥ 80,90
"CCOC(=O)OC(C)n1nc(C)oc1=NC(=O)c1ccc(C(F)(F)F)c(S(C)(=O)=O)c1C (stereo not shown) [Compound No. 4-145, ethyl 1-[5-methyl-2-{[2-methyl-3-(methylsulfonyl)-4-(trifluoromethyl)benzoyl]imino}-1,3,4-oxadiazol-3(2H)-yl]ethyl carbonate]",≥ 80,≥ 80,≥ 80,≥ 80,–
"CCOC(=O)OC(C)OC(=Nc1nnc(C)o1)c1ccc(C(F)(F)F)c(S(C)(=O)=O)c1C (stereo not shown) [Compound No. 7-145, 1-[(ethoxycarbonyl)oxy]ethyl-2-methyl-N-(5-methyl-1,3,4-oxadiazol-2-yl)-3-(methylsulfonyl)-4-(trifluoromethyl)benzenecarboximidate]",≥ 80,≥ 80,≥ 80,≥ 80,–
"CCOC(=O)OC(C)OC(=Nc1nnc(C)o1)c1ccc(C(F)(F)F)c([S+](C)[O-])c1Cl (stereo not shown) [Compound No. 7-385, 1-[(ethoxycarbonyl)oxy]ethyl-2-chloro-N-(5-methyl-1,3,4-oxadiazol-2-yl)-3-(methylsulfinyl)-4-(trifluoromethyl)benzenecarboximidate]",≥ 80,≥ 80,≥ 80,≥ 80,90
